The test system of assay [1] is PGE2 release from passage 3 normal human chondrocytes. The assay can be described thus: Rescue versus preincubation regimens, IL-1β-induced PGE2 release from passage 3 normal human chondrocytes. Conditions: 25 μM Dec, 28 mM Lac, 10 μM LA, singlet. It counts as cell-based. An excerpt: The mechanisms of action (MOA) of a drug often dictate the timing and delivery of treatment regimens. While the MOA of compounds disclosed herein continue to be elucidated, experiments were designed to help establish how the drugs should be administered. Furthermore, these experiments will also help with hypothesis generation for subsequent MOA investigations. A low-passage chondrocyte monolayer model was utilized to establish how changes in drug delivery impact the inhibition of IL-1β-induced PGE2 release seen following treatment with the compounds under investigation.
Passage 3 normal human chondrocytes were seeded into tissue culture plates and then tested for compound activity by pre-treating for 24 hours, administering at the same time as activation, or by adding to cells following an overnight activation with IL-1β. Treatment groups included medium control, 25 μM decanoate (Dec), 28 mM D/L sodium Lac, and 10 μM LA. PGE2 release was then evaluated 24- or 96-hours post-activation with percent inhibitions calculated versus plate- and block-matched controls. The experiments were performed in singlet and are intended to be repeated to establish variance.

Assay [2] relates to SOX9 expression in human osteoarthritic chondrocytes. As to the kind of experiment: SOX9 relative expression in high and low passage osteoarthritic chondrocytes, 7, 14 or 28 days. It counts as cell-based. An excerpt: Media was exchanged bi-weekly. […] SOX9 is a transcription factor vital to the development and maintenance of cartilage and is required for chondrogenesis. SOX9 promotes chondrocyte survival and transcriptionally activates cartilage-specific genes. SOX9 is repressed in hypertrophic chondrocytes (i.e. terminally differentiated osteoblast-like cells).

Where [3] appears, read: low passage osteoarthritic chondrocytes, 7, 14, 28 days.

`CC(O)C(=O)O` (centres unmarked) [Lac, lactate]: the “inhibition of PGE2 release” value turned out to be 64% in assay [1] (rescue (added after overnight IL-1β activation), 24-hour harvest) and 27% in assay [1] (rescue, 96-hour harvest). The SOX9 expression result in assay [2] (high passage, dedifferentiated osteoarthritic chondrocytes with TGF-β3, 14 days) was “increased SOX9 transcription”; in assay [2] (setting [3]), “temporal increase in SOX9”. In assay [2] (setting [3]), the “ratio of SOX9/RUNX2” value is recorded as “temporally increased”.
